Measured values published in patent US6723716B1, “7-acylamino-3-heteroarylthio-3-cephem carboxylic acid antibiotics and prodrugs thereof” (Essential Therapeutics, Inc., priority 1999, dated 2004).

Key:
Assay type in all cases: in vitro ADME
human serum proteins = test: Serum binding determination by ultrafiltration/HPLC; settings: by HPLC
Procedure: (§1) The more accurate measurement of binding of selected cephalosporin compounds was performed using HPLC as described below.
(§2) 1. Serum is placed in a shaking water bath preheated to 37±2° C. for 5 to 10 minutes to heat serum to 37° C. Serum pH is measured and recorded, while serum is 37° C. using pH paper. Measurements are taken twice, 3 minutes apart. If the pH is not 7.4±0.4 then the pH is adjusted by blowing 5% CO2/95% O2 over the serum. After blowing for several minutes, serum is heated to 37° C. and measurements are taken twice, 3 minutes apart using pH paper to determine the pH. Store at 4° C. The serum is stable for 7 days. Always check the pH before each use.
(§3) 2. Before any centrifugation, the centrifuge temperature must be adjusted to 25±2° C. Preheat the centrifuge by spinning for 45 minutes at the same speed to be used in the assay (1900 g) with two tubes of water in the rotor and the temperature set to 25° C. When the centrifuge stops immediately check the temperature of the tubes of water with a calibrated thermometer. The temperature of the tubes of water must be 25±2° C. […] Continue spinning and measuring the temperature and adjusting the setting until the temperature is 25±2° C.
(§4) 3. Prepare blank ultrafiltrate by pipetting blank pH 7.4 serum into an Amicon Centrifree Micropartition devices, centrifuge: fixed angle rotor, 1900 g, 25° C. for 20 minutes. Heat ultrafiltrate in a shaking water bath preheated to 37° C. Measure ultrafiltrate pH and adjust to the pH of the serum (7.4±0.2).
(§5) 4. Pipette 190 ul of blank ultrafiltrate into a set of labeled 1.7 mL polypropylene microfuge tubes for 3 of each level. Pipette 10 μL of the appropriate standard stock 50, 200, 1000 μg/mL to make standards 2.5, 10, and 50 μg/mL respectively. Vortex each tube well. One set of the standard samples are mixed 1:1 with 0.2 M acetic acid and injected onto the HPLC (MSTD). These samples are the membrane standards and will be used to compare to the other standards. Pipette 190 ul of ultrafiltrate and spike with 10 ul of whatever solution (e.g. water) the standards are prepared in to make the zero standard.
(§6) 5. Pipette 475 μL of blank heated pH 7.4 serum into a set of labeled 1.7 mL polypropylene microfuge tubes for 2 of each (Serum A and Serum B). Pipette 25 μL of the 1000 μg/mL standard stock into each tube, vortex each tube well to make serum standard 50 μg/mL. Remove 100 μL of serum and deproteinate with 200 μL 4% TCA while vortexing to make serum time 0 (serum 50, T0). Place serum tubes in a shaking water bath at 37° C. for 10 minutes. Pipet 100 μL of serum out and deproteinate with 200 μL 4% TCA, to make serum time 10 min (serum 50, T10). Pipet 200 ul serum standard 50 μg/mL into an ultrafiltration device, which is not treated with TCA, to determine free drug in samples (Rat Serum 50).
(§7) 6. Transfer serum and standard samples to labeled Amicon Centrifree Micropartition filters, and centrifuge: 1900 g, 25° C. for 10 minutes. The extracted serum samples (T0 and T10) are spun down and supernatant is loaded into HPLC vials.
(§8) 7. 100 μL of ultrafiltrate sample and 100 μL of 0.2 M acetic acid were mixed together to stabilize the compound in ultrafiltrate.
(§9) 8. Transfer entire stabilized ultrafiltrate solution to a labeled autoinjector HPLC vial cap with Teflon septa, and inject on HPLC.
(§10) Peak height or area is used in a weighted linear regression.

rat serum proteins = test: as above; settings: by HPLC
Procedure: as §1, §2, §3, §4, §5, §6, §7, §8, §9, §10

rhesus serum proteins = test: as above; settings: by HPLC
Procedure: as §1, §2, §3, §4, §5, §6, §7, §8, §9, §10

[1] = In vitro stability of compounds in rat serum; settings: for stability of compounds in rat serum: Table 2 data; for Stability in rat serum (% loss): after 60 min exposure to rat serum, 37° C., HPLC
Procedure: In general, compounds from the class of 7-acylamino-3-heteroarylthio-3-cephem carboxylic acids have higher chemical reactivity and lower stability towards chemical or enzymatic decomposition than most typical cephalosporins. […] Results shown in Table 2 represent percentage loss of the initial amount of cephalosporin compound upon 60 min incubation in rat serum.
Procedure for measuring degree of degradation of cephalosporin compounds in rat serum was as follows:
Fresh control rat serum (heparinized and stored frozen) is preincubated at 37° C. for 15 min in a shaking water bath. pH is measured using test strips. 25 μL of a 2 mg/mL solution cephalosporin compound (in water) of is then added to each matrix to make 1000 μL. Solutions were incubated at 37° C. 100 ul of solution was taken out at time=0, 15, 30, and 60 min post dose and added 200 μL 4% trichloroacetic acid, vortexed, and centrifuged for 10 min at 14,000 rpm in an Eppendorf microcentrifuge. 25 μL of each supernatant was injected onto HPLC. Experiment was repeated using 25 μL of a 0.2 mg/mL cephalosporin compound. Degradation is measured as the percentage of HPLC peak area at time t relative to peak area at time 0.
HPLC conditions: Beckman Ultrasphere C18 column. 5 u. 4.6 mm×25 cm. 1 mL/min of 95% 0.1 M ammonium acetate, pH 6, 5% ACN going to 75% buffer/organic over 20 min. UV monitored at 254 and 280 nm.

| SMILES | Serum Binding human (% of compound bound to serum) (human serum proteins) [%] | Serum Binding rat (% of compound bound to serum) (rat serum proteins) [%] | Serum Binding rhesus (% of compound bound to serum) (rhesus serum proteins) [%] | stability of compounds in rat serum [1] | Stability in rat serum (% loss) [1] [%] |
| --- | --- | --- | --- | --- | --- |
| N=C(N)NCCSCc1cnccc1SC1=C(C(=O)O)N2C(=O)[C@@H](NC(=O)/C(=N\O)c3nsc(N)n3)[C@H]2SC1 [Cmpd 25, (7R)-7-[(Z)-2-(5-amino-1,2,4-thiadiazol-3-yl)-2-(hydroxyimino)acetamido]-3-[3-(2-guanidinoethylthiomethyl)pyrid-4-ylthio]-3-cephem-4-carboxylic acid] | 47 | 35 | 55 | improved stability | 45 |
| NCCSCc1nc(SCCN)sc1SC1=C(C(=O)O)N2C(=O)[C@@H](NC(=O)/C(=N\O)c3nc(N)sc3Cl)[C@H]2SC1 [Cmpd 11, (7R)-7-[(Z)-2-(2-amino-5-chlorothiazol-4-yl)-2-(hydroxyimino)acetamido]-3-[4-(2-aminoethylthiomethyl)-2-aminoethylthio-1,3-thiazol-5-ylthio]-3-cephem-4-carboxylic acid] | 83 |  |  |  | 47 |
| NCCSCc1cnccc1SC1=C(C(=O)O)N2C(=O)[C@@H](NC(=O)/C(=N\O)c3nsc(N)n3)[C@H]2SC1 [Cmpd 18, (7R)-7-[(Z)-2-(5-amino-1,2,4-thiadiazol-3-yl)-2-(hydroxyimino)acetamido]-3-[3-(2-aminoethylthiomethyl)pyrid-4-ylthio]-3-cephem-4-carboxylic acid] | 66 | 55 | 67 |  | 23 |
| NCCSCc1cnccc1SC1=C(C(=O)O)N2C(=O)[C@@H](NC(=O)/C(=N\O)c3nc(N)sc3Cl)[C@H]2SC1 [Cmpd 20, (7R)-7-[(Z)-2-(2-amino-5-chlorothiazol-4-yl)-2-(hydroxyimino)acetamido]-3-[3-(2-aminoethylthiomethyl)pyrid-4-ylthio]-3-cephem-4-carboxylic acid] | 84 | 71 | 77 |  | 70 |
| NCCSCc1nc(N)sc1SC1=C(C(=O)O)N2C(=O)[C@@H](NC(=O)/C(=N\O)c3nc(N)sc3Cl)[C@H]2SC1 [Cmpd 3, (7R)-7-[(Z)-2-(2-amino-5-chlorothiazol-4-yl)-2-(hydroxyimino)acetamido]-3-[4-(2-aminoethylthiomethyl)-2-amino-1,3-thiazol-5-ylthio]-3-cephem-4-carboxylic acid] | 88 | 56 | 93 | improved stability | 3 |
| NCCSCc1ncccc1SC1=C(C(=O)O)N2C(=O)[C@@H](NC(=O)/C(=N\O)c3nc(N)sc3Cl)[C@H]2SC1 [Cmpd 13, (7R)-7-[(Z)-2-(2-amino-5-chlorothiazol-4-yl)-2-(hydroxyimino)acetamido]-3-[2-(2-aminoethylthiomethyl)pyrid-3-ylthio]-3-cephem-4-carboxylic acid] | 90 | 85 |  | improved stability | 9 |
| NCCSCc1cnccc1SC1=C(C(=O)O)N2C(=O)C(NC(=O)/C(=N\O)c3csc(N)n3)C2SC1 (stereo not shown) [Cmpd 19] | 68 | 76 | 83 |  | 26 |
| NCCSCc1cnccc1SC1=C(C(=O)O)N2C(=O)[C@@H](NC(=O)/C(=N\O)c3cccc(N)n3)[C@H]2SC1 [Cmpd 24, (7R)-7-[(Z)-2-(2-aminopyrid-6-yl)-2-(hydroxyimino)acetamido]-3-[3-(2-aminoethylthiomethyl)pyrid-4-ylthio]-3-cephem-4-carboxylic acid] | 88 | 52 |  |  | 66 |
| NCCSCc1ncsc1SC1=C(C(=O)O)N2C(=O)[C@@H](NC(=O)/C(=N\O)c3cccc(N)n3)[C@H]2SC1 [Cmpd 23, (7R)-7-[(Z)-2-(2-aminopyrid-6-yl)-2-(hydroxyimino)acetamido]-3-[4-(2-aminoethylthiomethyl)-1,3-thiazol-5-ylthio]-3-cephem-4-carboxylic acid] | 94 | 77 | 93 | improved stability | 19 |
| NCCSCc1ccncc1SC1=C(C(=O)O)N2C(=O)[C@@H](NC(=O)/C(=N\O)c3nc(N)sc3Cl)[C@H]2SC1 [Cmpd 21, (7R)-7-[(Z)-2-(2-amino-5-chlorothiazol-4-yl)-2-(hydroxyimino)acetamido]-3-[4-(2-aminoethylthiomethyl)pyrid-3-ylthio]-3-cephem-4-carboxylic acid] | 90 | 97 | 97 | improved stability | 3 |
| N=C(N)NCCSCc1ncccc1SC1=C(C(=O)O)N2C(=O)[C@@H](NC(=O)/C(=N\O)c3nsc(N)n3)[C@H]2SC1 [Cmpd 14, (7R)-7-[(Z)-2-(5-amino-1,2,4-thiadiazol-3-yl)-2-(hydroxyimino)acetamido]-3-[2-(2-guanidinoethylthiomethyl)pyrid-3-ylthio]-3-cephem-4-carboxylic acid] | 60 |  |  | improved stability | 10 |
| NCCSCc1ncccc1SC1=C(C(=O)O)N2C(=O)[C@@H](NC(=O)/C(=N\O)c3nsc(N)n3)[C@H]2SC1 [Cmpd 17, (7R)-7-[(Z)-2-(5-amino-1,2,4-thiadiazol-3-yl)-2-(hydroxyimino)acetamido]-3-[2-(2-aminoethylthiomethyl)pyrid-3-ylthio]-3-cephem-4-carboxylic acid] | 66 | 74 | 81 | improved stability | 2 |
